Source: patent US11214594B2, “Antimicrobial peptide having synergistic antibacterial effect with antibiotics on multidrug resistant bacteria, and use thereof” (priority 2016, dated 2022)
≈ marks a conversion by molar mass, not a printed value. Where a SMILES comes first, the peptide text is derived from it. [ ]: non-standard residue; d: D form.

Assays:
A. baumannii [1] = assay: microbe, parasite or virus in culture; assay type: cell-based, Acinetobacter baumannii; settings: for Antibacterial activity relative to PapMA-1: A. baumannii and S. typhimurium
In short: (§1)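 Broth microdilution in MH medium: strains diluted to 2×10^6 CFU were mixed with equal volumes of twofold serial peptide dilutions in MH medium. MIC was taken as the lowest peptide concentration preventing bacterial growth.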

MDRAB 12035 = assay: microbe, parasite or virus in culture; assay type: cell-based, Acinetobacter baumannii
In short: as §1

S. typhimurium = assay: microbe, parasite or virus in culture; assay type: cell-based, Salmonella typhimurium
In short: as §1

S. aureus = assay: microbe, parasite or virus in culture; assay type: cell-based, Staphylococcus aureus
In short: as §1

MDREC 1229 = assay: MIC of antibiotic during combined treatment with antimicrobial peptide; assay type: cell-based, Escherichia coli
In short: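 Antibiotic MIC came from antibiotic dilutions added to bacteria (2×10^6 CFU/ml, MH medium) already combined with peptide serially diluted 2:1 from its own MIC. Swapping the roles of the two agents gave the peptide MIC.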

A. baumannii [2] = assay: as above; assay type: cell-based, Acinetobacter baumannii; settings: for Synergistic effect of antibacterial activity with existing antibiotics compared with PapMA-1: A. baumannii and MDRAB 12035; for Antibiotic MIC, Erythromycin / Antibiotic MIC, Linezolid / Antibiotic MIC, Vancomycin: A. baumannii
In short: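 MIC values for mixed peptide plus antibiotic solutions were measured in MH medium.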

[3] = tested on: multi-drug resistant bacteria; assay: MIC, summary statements for multi-drug resistant bacteria; assay type: cell-based
Protocol: For the antibacterial activity, a minimal inhibitory concentration (MIC) of a peptide in which fungus bodies were not split in an MH medium with sufficient nutrients was measured.
Specifically, the strains described in the following [Table 2] were purchased and diluted with an MH medium such that the number of bacteria was 2×10^6 colony-forming units (CFUs), 100 μl of each of the diluted strains was aliquoted into a 96-well microtiter plate, and then 100 μl of a peptide solution diluted with the MH medium (solution diluted stepwise at 2: 1) was added to each well.

[4] = peptide treatment concentration 1 μg/ml
[5] = peptide treatment concentration 2 μg/ml
[6] = peptide treatment concentration 4 μg/ml
[7] = peptide treatment concentration 6 μg/ml
[8] = peptide treatment concentration 8 μg/ml
[9] = peptide treatment concentration 16 μg/ml
[10] = peptide treatment concentration 32 μg/ml
[11] = peptide treatment concentration 64 μg/ml
[12] = combined with peptide at 1 μg/ml
[13] = combined with peptide at 2 μg/ml
[14] = combined with peptide at 4 μg/ml
[15] = combined with peptide at 6 μg/ml
[16] = combined with peptide at 8 μg/ml
[17] = combined with peptide at 16 μg/ml
[18] = combined with peptide at 32 μg/ml
[19] = combined with peptide at 64 μg/ml

## CC[C@H](C)[C@H](NC(=O)[C@H](CCCCN)NC(=O)[C@H](Cc1c[nH]c2ccccc12)NC(=O)[C@@H](N)CCCNC(=N)N)C(=O)N[C@@H](Cc1ccccc1)C(=O)N[C@@H](CCCCN)C(=O)N[C@@H](CCCCN)C(=O)N[C@H](C(=O)N[C@H](CCCCN)C(=O)N[C@@H](CCCCN)C(=O)N[C@@H](CC(C)C)C(=O)N[C@@H](CC(C)C)C(=O)N[C@@H](Cc1c[nH]cn1)C(=O)N[C@@H](CCC(=O)O)C(=O)N[C@@H](C)C(=O)N[C@@H](CCCCN)C(=O)N[C@@H](CCCCN)C(=O)N[C@@H](Cc1c[nH]c2ccccc12)C(N)=O)[C@@H](C)CC [PapMA-20, RWK IFK KIk KLL HEA KKW-NH2] (H-RWKIFKKI[dK]KLLHEAKKW-NH2; N-terminus assumed)
A. baumannii [1]
  Minimal inhibitory concentration MIC: 16 µg/mL (≈ 6.72 µM)
  Peptide MIC, peptide alone: 16 µg/mL
  Antibacterial activity relative to PapMA-1: at least twice as high
MDRAB 12035
  Minimal inhibitory concentration MIC: 16 µg/mL (≈ 6.72 µM)
  Peptide MIC, peptide alone: 16 µg/mL
S. typhimurium
  Minimal inhibitory concentration MIC: 32 µg/mL (≈ 13.4 µM)
S. aureus
  Minimal inhibitory concentration MIC: >128 µg/mL
MDREC 1229; [4]
  Antibiotic MIC, Erythromycin: 128 µg/mL
  Antibiotic MIC, Linezolid: >128 µg/mL
  Antibiotic MIC, Vancomycin: >128 µg/mL
MDREC 1229; [5]
  Antibiotic MIC, Erythromycin: 32 µg/mL
  Antibiotic MIC, Linezolid: 64 µg/mL
  Antibiotic MIC, Vancomycin: >128 µg/mL
MDREC 1229; [6]
  Antibiotic MIC, Erythromycin: 8 µg/mL
  Antibiotic MIC, Linezolid: 16 µg/mL
  Antibiotic MIC, Vancomycin: 64 µg/mL
MDREC 1229; [7]
  Antibiotic MIC, Erythromycin: 2 µg/mL
  Antibiotic MIC, Linezolid: 16 µg/mL
  Antibiotic MIC, Vancomycin: 16 µg/mL
MDREC 1229; [8]
  Antibiotic MIC, Erythromycin: 1 µg/mL
  Antibiotic MIC, Linezolid: 8 µg/mL
  Antibiotic MIC, Vancomycin: 8 µg/mL
MDREC 1229; [9]
  Antibiotic MIC, Erythromycin: 0 µg/mL
  Antibiotic MIC, Linezolid: 0 µg/mL
  Antibiotic MIC, Vancomycin: 0 µg/mL
MDREC 1229; [10]
  Antibiotic MIC, Erythromycin: 0 µg/mL
  Antibiotic MIC, Linezolid: 0 µg/mL
  Antibiotic MIC, Vancomycin: 0 µg/mL
MDREC 1229; [11]
  Antibiotic MIC, Erythromycin: 0 µg/mL
  Antibiotic MIC, Linezolid: 0 µg/mL
  Antibiotic MIC, Vancomycin: 0 µg/mL
A. baumannii [2]
  Synergistic effect of antibacterial activity with existing antibiotics compared with PapMA-1: higher level than the PapMA-1 peptide
A. baumannii [2]; [12]
  Antibiotic MIC, Erythromycin: 32 µg/mL
  Antibiotic MIC, Linezolid: >128 µg/mL
  Antibiotic MIC, Vancomycin: >128 µg/mL
A. baumannii [2]; [13]
  Antibiotic MIC, Erythromycin: 16 µg/mL
  Antibiotic MIC, Linezolid: 64 µg/mL
  Antibiotic MIC, Vancomycin: >128 µg/mL
A. baumannii [2]; [14]
  Antibiotic MIC, Erythromycin: 2 µg/mL
  Antibiotic MIC, Linezolid: 16 µg/mL
  Antibiotic MIC, Vancomycin: 32 µg/mL
A. baumannii [2]; [15]
  Antibiotic MIC, Erythromycin: 1 µg/mL
  Antibiotic MIC, Linezolid: 8 µg/mL
  Antibiotic MIC, Vancomycin: 8 µg/mL
A. baumannii [2]; [16]
  Antibiotic MIC, Erythromycin: 0.125 µg/mL
  Antibiotic MIC, Linezolid: 2 µg/mL
  Antibiotic MIC, Vancomycin: 2 µg/mL
A. baumannii [2]; [17]
  Antibiotic MIC, Erythromycin: 0 µg/mL
  Antibiotic MIC, Linezolid: 0 µg/mL
  Antibiotic MIC, Vancomycin: 0 µg/mL
A. baumannii [2]; [18]
  Antibiotic MIC, Erythromycin: 0 µg/mL
  Antibiotic MIC, Linezolid: 0 µg/mL
  Antibiotic MIC, Vancomycin: 0 µg/mL
A. baumannii [2]; [19]
  Antibiotic MIC, Erythromycin: 0 µg/mL
  Antibiotic MIC, Linezolid: 0 µg/mL
  Antibiotic MIC, Vancomycin: 0 µg/mL
[3]
  Antibacterial activity relative to PapMA-1: twice to four times higher

## CC[C@H](C)[C@H](NC(=O)[C@H](CCCCN)NC(=O)[C@H](Cc1c[nH]c2ccccc12)NC(=O)[C@@H](N)CCCNC(=N)N)C(=O)N[C@@H](Cc1ccccc1)C(=O)N[C@@H](CCCCN)C(=O)N[C@@H](CCCCN)C(=O)N[C@H](C(=O)N[C@H](CCCCN)C(=O)N[C@@H](CCCCN)C(=O)N[C@@H](CC(C)C)C(=O)N[C@@H](CC(C)C)C(=O)N[C@@H](Cc1c[nH]cn1)C(=O)N[C@@H](CCC(=O)O)C(=O)N[C@@H](Cc1ccccc1)C(=O)N[C@@H](CCCCN)C(=O)N[C@@H](CCCCN)C(=O)N[C@@H](Cc1ccccc1)C(N)=O)[C@@H](C)CC [PapMA-19, RWK IFK KIk KLL HEF KKF-NH2] (H-RWKIFKKI[dK]KLLHEFKKF-NH2; N-terminus assumed)
A. baumannii [1]
  Minimal inhibitory concentration MIC: 16 µg/mL (≈ 6.62 µM)
  Peptide MIC, peptide alone: 16 µg/mL
  Antibacterial activity relative to PapMA-1: at least twice as high
MDRAB 12035
  Minimal inhibitory concentration MIC: 32 µg/mL (≈ 13.2 µM)
  Peptide MIC, peptide alone: 32 µg/mL
S. typhimurium
  Minimal inhibitory concentration MIC: 32 µg/mL (≈ 13.2 µM)
S. aureus
  Minimal inhibitory concentration MIC: >128 µg/mL
MDREC 1229; [4]
  Antibiotic MIC, Erythromycin: 128 µg/mL
  Antibiotic MIC, Linezolid: >128 µg/mL
  Antibiotic MIC, Vancomycin: >128 µg/mL
MDREC 1229; [5]
  Antibiotic MIC, Erythromycin: 32 µg/mL
  Antibiotic MIC, Linezolid: 128 µg/mL
  Antibiotic MIC, Vancomycin: 128 µg/mL
MDREC 1229; [6]
  Antibiotic MIC, Erythromycin: 8 µg/mL
  Antibiotic MIC, Linezolid: 32 µg/mL
  Antibiotic MIC, Vancomycin: 64 µg/mL
MDREC 1229; [7]
  Antibiotic MIC, Erythromycin: 2 µg/mL
  Antibiotic MIC, Linezolid: 16 µg/mL
  Antibiotic MIC, Vancomycin: 8 µg/mL
MDREC 1229; [8]
  Antibiotic MIC, Erythromycin: 1 µg/mL
  Antibiotic MIC, Linezolid: 16 µg/mL
  Antibiotic MIC, Vancomycin: 8 µg/mL
MDREC 1229; [9]
  Antibiotic MIC, Erythromycin: 0.5 µg/mL
  Antibiotic MIC, Linezolid: 4 µg/mL
  Antibiotic MIC, Vancomycin: 4 µg/mL
MDREC 1229; [10]
  Antibiotic MIC, Erythromycin: 0 µg/mL
  Antibiotic MIC, Linezolid: 0 µg/mL
  Antibiotic MIC, Vancomycin: 0 µg/mL
MDREC 1229; [11]
  Antibiotic MIC, Erythromycin: 0 µg/mL
  Antibiotic MIC, Linezolid: 0 µg/mL
  Antibiotic MIC, Vancomycin: 0 µg/mL
A. baumannii [2]
  Synergistic effect of antibacterial activity with existing antibiotics compared with PapMA-1: higher level than the PapMA-1 peptide
A. baumannii [2]; [12]
  Antibiotic MIC, Erythromycin: 32 µg/mL
  Antibiotic MIC, Linezolid: >128 µg/mL
  Antibiotic MIC, Vancomycin: >128 µg/mL
A. baumannii [2]; [13]
  Antibiotic MIC, Erythromycin: 16 µg/mL
  Antibiotic MIC, Linezolid: 64 µg/mL
  Antibiotic MIC, Vancomycin: 128 µg/mL
A. baumannii [2]; [14]
  Antibiotic MIC, Erythromycin: 4 µg/mL
  Antibiotic MIC, Linezolid: 16 µg/mL
  Antibiotic MIC, Vancomycin: 32 µg/mL
A. baumannii [2]; [15]
  Antibiotic MIC, Erythromycin: 2 µg/mL
  Antibiotic MIC, Linezolid: 8 µg/mL
  Antibiotic MIC, Vancomycin: 8 µg/mL
A. baumannii [2]; [16]
  Antibiotic MIC, Erythromycin: 0.25 µg/mL
  Antibiotic MIC, Linezolid: 4 µg/mL
  Antibiotic MIC, Vancomycin: 4 µg/mL
A. baumannii [2]; [17]
  Antibiotic MIC, Erythromycin: 0 µg/mL
  Antibiotic MIC, Linezolid: 0 µg/mL
  Antibiotic MIC, Vancomycin: 0 µg/mL
A. baumannii [2]; [18]
  Antibiotic MIC, Erythromycin: 0 µg/mL
  Antibiotic MIC, Linezolid: 0 µg/mL
  Antibiotic MIC, Vancomycin: 0 µg/mL
A. baumannii [2]; [19]
  Antibiotic MIC, Erythromycin: 0 µg/mL
  Antibiotic MIC, Linezolid: 0 µg/mL
  Antibiotic MIC, Vancomycin: 0 µg/mL
[3]
  Antibacterial activity relative to PapMA-1: twice to four times higher
